{"source": "patent US20040063681A1", "about": "“Methods for using gold (III) complexes as anti-tumor and anti-HIV agents” (priority 2002, published 2004)", "key": {"[1]": {"system": "human cancer cell lines (HL-60, HepG2, HeLa, KB-3-1, KB-V1, SUNE1, CNE1)", "format": "cell-based", "conditions": "MTT, all studied cell lines; read-out: IC50 values over the panel of cancer cell lines", "source_text": "Human promyelocytic leukemia (HL-60), human hepatocellular carcinoma (HepG2), Human cervix epitheloid carcinoma cells (HeLa) and human oral epidermoid carcinoma cells (KB-3-1), were obtained from American Type Culture Collection (ATCC) (Rockville, Md.). The multi-drug-resistant variant KB-V1 cell line was obtained by stepwise selections for vinblastine resistance as described by Shen et al., J. Biol. Chem. 261:7762-7770 (1986)], and was generously provided by Dr Michael Gottesman (NIH, Bethesda, Md.). Human nasopharyngeal carcinoma cells (SUNE1 and its cisplatin resistance variant, CNE1) were derived from poorly differentiated NPC in Chinese patients as described by Gu et al., Chin. J. Cancer 2:270-272 (1983), and were generously provided by Dr S. W. Tsao (The University of Hong Kong, Hong Kong, PRC). Cell culture flasks and 96 well microtitre plates were from Nalge Nunc hit. Culture medium, other medium constituents and phosphate buffered saline (PBS) were obtained from Gibco BRL (Rockville, Md.). […]\nThe anti-cancer activities of the gold(III) porphyrin complexes were evaluated toward some established human cancer cell lines: promyelocytic leukemia (HL-60), hepatocellular carcinoma (HepG2), cervix epitheloid carcinoma (HeLa), epidermoid carcinoma (KB-3-1) and its multi-drug resistant variant (KB-V1), nasopharyngeal carcinoma (SUNE1) and its cisplatin-resistant variant (CNE1). […]"}, "[2]": {"assay": "1H-NMR stability experiments with GSH", "format": "physicochemical", "conditions": "72 h", "procedure": "^1H-NMR experiments. […] The pH was adjusted to 7.4 with NaOD, and the solution was degassed for 10 min by bubbling with nitrogen to minimize oxidation of GSH. Similar experimental setup was done for Complex 1j, except this analysis was carried out in D2O only. The electronic spectra of the resulting mixtures was then monitored for 72 h.\nIt is known that the chemical shifts of the pyrrolic protons are sensitive to the oxidation states of the gold center, and reduction of Au(III) to Au(I) or Au(0) is expected to be accompanied by spectral changes in the pyrrolic region.\nGlutathione can be oxidized to form a disulfide bridged dimer (GSSG) with a mild oxidizing agent such as gold(III) complex. A previous study by Sun et al., Eur. J. Biochem. 267:5450-5457 (2000) established that GSSG is characterized by a doublet absorption peak at δH 3.30 ppm, assignable to β-CH2 group as depicted in Scheme 5. Scheme 5. Characteristic proton resonance absorptions for (a) GSH and (b) GSSG in D2O [drawing 29]\nThe results of the NMR studies indicate that illustrative Complexes 1a-1k are stable under physiologically relevant conditions."}, "[3]": {"assay": "UV-vis stability study in buffer solution with and without glutathione", "format": "physicochemical", "conditions": "room temperature", "procedure": "UV-vis experiments. For UV-vis analysis, the absorption spectra of 2.5 μM (7 nmoles) of all studied complexes in (1:19) MeCN/Tris buffer solution was monitored over 72 h. […] The gold(III) solution was monitored over 48 h at room temperature and less than 10% decrease in the Soret band intensity was observed without any significant spectral shift in both the Soret and Q-bands.\nYet, no significant spectral shift and formation of new absorption bands were observed.\nThis finding confirms the excellent solution stability of 1j and 1k in physiologically related medium.\nThe precipitates are soluble in common organic solvent such as THF, CHCl3 and DMSO but insoluble in aqueous solution."}, "HeLa cells": {"system": "HeLa cells", "assay": "Flow cytometry annexin V/propidium iodide apoptosis assay", "format": "cell-based, human", "source_text": "Flow cytometry: The gold(III) porphyrin-induced apoptosis of the HeLa cell line has been further examined by flow cytometry. During the early phase of apoptosis, cells lose the asymmetry of their membrane phospholipids, although the integrity of the cell membrane is maintained. A negatively charged phospholipid, named phosphatidylserine (PS), which is located in the inner part of the plasma membrane, becomes exposed to the cell surface. A phospholipid-binding protein, annexin V (green emissive upon binding), with high affinity binds preferentially to PS. Apoptotic cells therefore can be stained by annexin V before the dying cell changes its morphology and hydrolyzes its DNA. On the other hand, both DNA and the PS would be exposed for necrotic cells. In this case, propidium iodide (PI, red emissive upon binding), can be used to stain selectively the naked DNA. Therefore, both apoptotic and necrotic cells can be discriminated after adding these two staining reagents. For apoptotic cells, only annexin V would stain; for necrotic cells, both annexin V and PI would stain.\nFor comparison, a control cell culture experiment was performed in the absence of Complex 1a and straurosporine. […] Throughout the flow cytometric experiment, <1% of necrotic cells were observed."}, "calf thymus DNA": {"system": "calf thymus DNA", "assay": "UV-vis absorption titration with calf thymus DNA", "format": "binding", "procedure": "The calf thymus DNA was purchased from Sigma-Aldrich Chemical Co. and was purified by phenol-chloroform extraction. The DNA was dissolved in buffer (5 mM Tris, 5 mM NaCl, pH 7.2). The concentration (per base pair) of calf thymus DNA was determined spectrophotometrically on the basic of ε260, 13,200 M^−1cm^−1bp.\nAbsorption Titration. The binding interaction of the gold(III) porphyrins to duplex DNA has been studied by UV-vis spectroscopy.\nwhere [ctDNA] is the concentration of DNA, Δεap═|εA−εB| in which εA=Aobs/[complex], and Δε=|εB−εF|. εB and εF correspond to the extinction coefficient of DNA-bound gold(III) porphyrin and the free gold(III) porphyrins, respectively.\nThe effect of temperature on the intrinsic binding constants was investigated. Using the van't Hoff equation (2): […]"}}, "data": [{"smiles": "C1=Cc2nc1c(-c1ccccc1)c1ccc([n-]1)c(-c1ccccc1)c1nc(c(-c3ccccc3)c3ccc([n-]3)c2-c2ccccc2)C=C1.[Au+3].[Cl-]", "note": "[Complex 1a]", "values": [{"measurement": "IC50", "setting": "[1]", "result": "100 to 800", "unit": "nM"}, {"measurement": "1H NMR spectral changes", "setting": "[2]; GSH (2 mM), D2O/CD3CN (9:1 v/v), room temperature", "result": "no significant spectral changes were observed"}, {"measurement": "changes of 1H NMR spectral pattern in the aromatic region (δH 7.2-8.4 ppm)", "setting": "[2]; with GSH", "result": "did not observe any significant changes of the spectral pattern"}, {"measurement": "decrease in the Soret band intensity", "setting": "[3]; 2.5 μM in Tris buffer/MeCN (19:1), 48 h", "result": "less than 10%"}, {"measurement": "decrease of the Soret band intensity", "setting": "[3]; glutathione 2 mM in Tris buffer/MeCN=19:1, 48 h", "result": "about 27%"}, {"measurement": "cells that underwent apoptosis", "setting": "HeLa cells; 6 h of incubation", "result": 24, "unit": "%"}, {"measurement": "cells died via apoptosis", "setting": "HeLa cells; 15 h of incubation", "result": 57, "unit": "%"}, {"measurement": "annexin V emission", "setting": "HeLa cells; after treatment (Complex 1a 6 and 15 h; straurosporine 15 h)", "result": "the magnitude of the annexin V emission was enhanced"}, {"measurement": "necrotic cells", "setting": "HeLa cells; throughout the flow cytometric experiment", "result": "< 1", "unit": "%"}, {"measurement": "hypochromicity", "setting": "calf thymus DNA; Tris buffer, 292.8 K", "result": 53.4, "unit": "%"}, {"measurement": "hypochromicity", "setting": "calf thymus DNA; Tris buffer, 298.0 K", "result": 50.3, "unit": "%"}, {"measurement": "intrinsic binding constant (Kb)", "setting": "calf thymus DNA; Tris buffer, 298.0 K", "result": "2.14 × 10^6 dm^3mol^−1"}, {"measurement": "hypochromicity", "setting": "calf thymus DNA; Tris buffer, 302.3 K", "result": 49.5, "unit": "%"}, {"measurement": "intrinsic binding constant (Kb)", "setting": "calf thymus DNA; Tris buffer, 302.3 K", "result": "1.98 × 10^6 dm^3mol^−1"}, {"measurement": "hypochromicity", "setting": "calf thymus DNA; Tris buffer, 307.2 K", "result": 47.1, "unit": "%"}, {"measurement": "intrinsic binding constant (Kb)", "setting": "calf thymus DNA; Tris buffer, 307.2 K", "result": "1.55 × 10^6 dm^3mol^−1"}, {"measurement": "hypochromicity", "setting": "calf thymus DNA; Tris buffer, 311.6 K", "result": 46.3, "unit": "%"}, {"measurement": "intrinsic binding constant (Kb)", "setting": "calf thymus DNA; Tris buffer, 311.6 K", "result": "1.35 × 10^6 dm^3mol^−1"}, {"measurement": "hypochromicity", "setting": "calf thymus DNA; Tris buffer, 316.5 K", "result": 43.4, "unit": "%"}, {"measurement": "intrinsic binding constant (Kb)", "setting": "calf thymus DNA; Tris buffer, 316.5 K", "result": "0.94 × 10^6 dm^3mol^−1"}, {"measurement": "hypochromicity", "setting": "calf thymus DNA; Tris buffer, 321.9 K", "result": 42.5, "unit": "%"}, {"measurement": "intrinsic binding constant (Kb)", "setting": "calf thymus DNA; Tris buffer, 321.9 K", "result": "0.82 × 10^6 dm^3mol^−1"}, {"measurement": "ΔG° (298 K)", "setting": "calf thymus DNA; binding to calf thymus DNA, van't Hoff analysis, 298 K", "result": "−8.7 ± 0.4"}, {"measurement": "hypochromicity of the Soret band", "setting": "calf thymus DNA; calf thymus DNA (0-5 μM), Tris buffer", "result": 44, "unit": "%"}, {"measurement": "hypochromicity of the Q-band at 520 nm", "setting": "calf thymus DNA; calf thymus DNA (0-5 μM), Tris buffer, 2% DMSO", "result": 40, "unit": "%"}]}]}
